These results are taken from US20260109672A1, “SARS-COV-2 MPRO INHIBITORS AND USES THEREOF” (NXERA PHARMA UK LIMITED, priority 2022, published 2026).

The experiment deals with SARS-CoV-2 Mpro (Severe acute respiratory syndrome coronavirus 2, UniProt P0DTD1). As to the kind of experiment: Modified SARS-CoV-2 Mpro enzyme assay (FRET, kinetic read) for reference examples. Format: biochemical. As to conditions: 5 nM Mpro, 20 min preincubation at room temperature, mean n=2, set out in PCT/GB2022/050836.
On to “(1R,2S,5S)-N-[3-amino-1-(cyclopropylmethyl)-2,3-dioxo-propyl]-6,6-dimethyl-3-[(2S)-3-methyl-2-[(2,2,2-trifluoroacetyl)amino]butanoyl]-3-azabicyclo[3.1.0]hexane-2-carboxamide [Example 3]”, for which the “SARS-CoV-2 Mpro enzyme pKi assay pKi” value worked out at 7.1.

With “(1R,2S,5S)-N-[3-(cyclopropylamino)-2,3-dioxo-1-[(3S)-2-oxopyrrolidin-3-yl]methyl]propyl]-3-[(2S)-3,3-dimethyl-2-(2-methylpropanoylamino)butanoyl]-6,6-dimethyl-3-azabicyclo[3.1.0]hexane-2-carboxamide [Example 5]”, the “SARS-CoV-2 Mpro enzyme pKi assay pKi” value came to 6.8.

For “(1R,2S,5S)-N-[1-(cyclopropylmethyl)-3-(methylamino)-2,3-dioxo-propyl]-3-[(2S)-3,3-dimethyl-2-[(2,2,2-trifluoroacetyl)amino]butanoyl]-6,6-dimethyl-3-azabicyclo[3.1.0]hexane-2-carboxamide [Example 2]”, the “SARS-CoV-2 Mpro enzyme pKi assay pKi” value turned out to be 7.3.

“(1R,2S,5S)-N-(4-(cyclopropylamino)-3,4-dioxo-1-((S)-2-oxopyrrolidin-3-yl)butan-2-yl)-3-((S)-3,3-dimethyl-2-(2,2,2-trifluoroacetamido)butanoyl)-6,6-dimethyl-3-azabicyclo[3.1.0]hexane-2-carboxamide [Example 1]”: the “SARS-CoV-2 Mpro enzyme pKi assay pKi” value is recorded as 7.8.

Regarding “(1R,2S,5S)-N-(4-(cyclopropylamino)-3,4-dioxo-1-((S)-2-oxopyrrolidin-3-yl)butan-2-yl)-3-((E)-3-(2,4-difluorophenyl)acryloyl)-6,6-dimethyl-3-azabicyclo[3.1.0]hexane-2-carboxamide [Example 7]”, the “SARS-CoV-2 Mpro enzyme pKi assay pKi” value came to 6.7.

For “(1R,2S,5S)-N-[3-(cyclopropylamino)-2,3-dioxo-1-[[(3R)-2-oxo-3-piperidyl]methyl]propyl]-3-[(2S)-3,3-dimethyl-2-[(2,2,2-trifluoroacetyl)amino]butanoyl]-6,6-dimethyl-3-azabicyclo[3.1.0]hexane-2-carboxamide [Example 6]”, the “SARS-CoV-2 Mpro enzyme pKi assay pKi” value is 6.7.

“(1R,2S,5S)-N-[3-amino-1-(cyclobutylmethyl)-2,3-dioxo-propyl]-3-[(2S)-3,3-dimethyl-2-[(2,2,2-trifluoroacetyl)amino]butanoyl]-6,6-dimethyl-3-azabicyclo[3.1.0]hexane-2-carboxamide [Example 4]”: the “SARS-CoV-2 Mpro enzyme pKi assay pKi” value is 7.3.
